Reference: the supplement of paper PMC10307832

Key:
Test in all cases: relative viability (nuclei count vs DMSO), 5 days (fraction); higher = more cells survive
Crizotinib + OSI-027 = compound: C[C@@H](Oc1cc(-c2cnn(C3CCNCC3)c2)cnc1N)c1c(Cl)ccc(F)c1Cl [Crizotinib] + COc1cccc2cc(-c3nc([C@H]4CC[C@H](C(=O)O)CC4)n4ncnc(N)c34)[nH]c12 [OSI-027] (partner 0.5 µM)
Method in brief: (§1)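 Values are medians from duplicate plates. Each reflects relative viability, defined as the nuclei count of treated wells over that of vehicle wells. Lung cancer cell lines in 1536-well plates were pin-tool dosed one day after seeding with one drug alone or with a fixed anchor-drug dose plus five library-drug doses (not always all listed) in √10 steps, then fixed, stained and imaged at 4× after 5 days.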

Carfilzomib + Navitoclax = compound: CC(C)C[C@H](NC(=O)[C@H](CCc1ccccc1)NC(=O)CN1CCOCC1)C(=O)N[C@@H](Cc1ccccc1)C(=O)N[C@@H](CC(C)C)C(=O)[C@@]1(C)CO1 [Carfilzomib] + CC1(C)CCC(c2ccc(Cl)cc2)=C(CN2CCN(c3ccc(C(=O)NS(=O)(=O)c4ccc(N[C@H](CCN5CCOCC5)CSc5ccccc5)c(S(=O)(=O)C(F)(F)F)c4)cc3)CC2)C1 [Navitoclax] (partner 0.5 µM)
Method in brief: as §1

Olaparib + Bortezomib = compound: O=C(c1cc(Cc2n[nH]c(=O)c3ccccc23)ccc1F)N1CCN(C(=O)C2CC2)CC1 [Olaparib] + CC(C)C[C@H](NC(=O)[C@H](Cc1ccccc1)NC(=O)c1cnccn1)B(O)O [Bortezomib] (partner 0.002 µM)
Method in brief: as §1

Olaparib + Linsitinib = compound: O=C(c1cc(Cc2n[nH]c(=O)c3ccccc23)ccc1F)N1CCN(C(=O)C2CC2)CC1 [Olaparib] + C[C@]1(O)C[C@@H](c2nc(-c3ccc4ccc(-c5ccccc5)nc4c3)c3c(N)nccn32)C1 [Linsitinib] (partner 1 µM)
Method in brief: as §1

Row | Cell Line | relative viability (Crizotinib + OSI-027; first compound 0.01 µM) | relative viability (Crizotinib + OSI-027; first compound 0.03162 µM) | relative viability (Crizotinib + OSI-027; first compound 0.1 µM) | relative viability (Crizotinib + OSI-027; first compound 0.3162 µM) | relative viability (Crizotinib + OSI-027; first compound 1 µM) | relative viability (Carfilzomib + Navitoclax; first compound 0.001 µM) | relative viability (Carfilzomib + Navitoclax; first compound 0.003162 µM) | relative viability (Carfilzomib + Navitoclax; first compound 0.01 µM) | relative viability (Carfilzomib + Navitoclax; first compound 0.03162 µM) | relative viability (Carfilzomib + Navitoclax; first compound 0.1 µM) | relative viability (Olaparib + Bortezomib; first compound 0.08 µM) | relative viability (Olaparib + Bortezomib; first compound 0.253 µM) | relative viability (Olaparib + Bortezomib; first compound 2.53 µM) | relative viability (Olaparib + Bortezomib; first compound 8 µM) | relative viability (Olaparib + Linsitinib; first compound 0.08 µM) | relative viability (Olaparib + Linsitinib; first compound 0.253 µM) | relative viability (Olaparib + Linsitinib; first compound 2.53 µM) | relative viability (Olaparib + Linsitinib; first compound 8 µM)
1 | LU99A | 0.304 | 0.319 | 0.294 | 0.259 | 0.275 | 0.738 | 0.898 | 0.793 | 0.581 | 0.183 | 1.13 | 0.96 | 0.726 | 0.626 | 0.587 | 0.515 | 0.414 | 0.333
2 | LXF-289 | 0.769 | 0.809 | 0.758 | 0.489 | 0.877 | 0.915 | 0.974 | 0.935 | 0.0853 | 0.0461 | 1.09 | 0.941 | 1.03 | 0.992 | 1.05 | 0.899 | 1.02 | 0.968
3 | NCI-H23 | 0.631 | 0.58 | 0.66 | – | 0.541 | 0.797 | 0.799 | 0.987 | 0.227 | 0.152 | 1.28 | 0.717 | 0.581 | 0.482 | 0.572 | 0.572 | 0.45 | 0.299
4 | NCI-H322M | 0.519 | 0.521 | 0.478 | 0.535 | 0.502 | 1.36 | 1.29 | 1.01 | 1.22 | 0.559 | 1.27 | 1.19 | 1.2 | 1.24 | 0.819 | 0.879 | 0.979 | 0.84
5 | NCI-H441 | 0.569 | 0.553 | 0.601 | – | 0.603 | 0.534 | 0.571 | 0.208 | 0.144 | 0.145 | – | 0.175 | 0.489 | 0.382 | 0.658 | 0.528 | 0.544 | 0.485
6 | NCI-H460 | 0.536 | 0.931 | 0.479 | 0.6 | 0.708 | 1.08 | 1.21 | 1.17 | 0.357 | 0.0107 | 1.14 | 1.02 | 0.891 | 0.277 | 0.86 | 0.614 | 0.316 | 0.191
7 | NCI-H520 | 0.272 | 0.295 | 0.24 | 0.27 | 0.258 | 1.04 | 1.37 | 0.797 | 0.183 | 0.168 | 0.788 | 0.336 | 0.671 | 0.209 | 1.17 | 0.825 | 0.872 | 0.663
8 | NCI-H596 | 0.715 | 0.857 | 0.693 | 0.564 | 0.67 | 0.906 | 1.04 | 1.14 | 0.353 | 0.153 | 1.3 | 0.878 | 0.865 | 0.794 | 1.04 | 0.856 | 0.923 | 0.744
9 | NCI-H647 | 0.736 | 0.516 | 0.641 | 0.531 | 0.663 | – | 1.33 | 0.841 | 0.087 | 0.0294 | 1.18 | 0.942 | 0.864 | 0.416 | 1.4 | 1.05 | 0.919 | 0.779
